Measurements published in patent publication US20170367338A1, “COMPOSITIONS AND METHODS FOR IMPROVING AGRONOMIC CHARACTERISTICS OF PLANTS” (MONSANTO TECHNOLOGY LLC, priority 2014, published 2017).
Read-outs that look alike come from different tables or passages of the source. Marks after values point to notes of the source that are not given here.

Experiments:
[1] = test system: soybean cyst nematode (SCN); test: SCN greenhouse sand assay on soybean plants; type: in vivo; conditions: Glycine max, 672 h, read-out: percent control (cyst number reduction) relative to the control blank treatment
root knot nematode (RKN) = test: RKN greenhouse soil assay on cucumber plants; type: in vivo; conditions: for percent control (galling reduction) relative to the control blank treatment: 0 day treatment
Source text: Cucumber seeds are planted in a sandy soil mixture in two inch square plastic pots. When the cotyledons are fully opened and just as the first leaf begins to emerge, usually 7 days after planting, chemistry for the 7 day treatment is applied. One week later the chemistry for the 0 day treatment is applied. Separate plants are used for each application. The plants are generally in the 1-2 leaf stage now. At least four hours after the chemistry application the pots are inoculated with root knot nematode (RKN) eggs. Plants are rated for galling 14 days after the egg inoculation.
One milligram of chemistry per four pots is equal to one kilogram per hectare of chemical. A standard test uses four replications. For rates above 2 kg/ha, the desired amount of chemical is weighed into a 30 ml vial (example: 8 kg/ha rate =8 mg chemical in 30 ml vial). The chemical is dissolved in 2 ml of appropriate solvent, generally acetone. For rates below 2 kg/ha, 2 milligrams of chemistry is weighed into the vial and dissolved in 2 ml of the solvent. The appropriate amount of chemical concentrate is then pipetted into a separate 30 ml vial and solvent is added to bring the volume to 2 ml (example 0.5 kg/ha=0.5 ml of concentrate+1.5 ml solvent). Each dissolved concentrate is then brought to a total of 20 milliliters using 0.05% Triton X 100 surfactant solution.
Pots to be treated are moist but not saturated. To each of four pots, five milliliters of the appropriate chemical solution is pipetted to the media surface making sure to avoid contact with the base of the plant. Immediately following chemical application, using a mist nozzle, the pot surface is wetted sufficiently to saturate the pot watering in the chemistry. The chemical application is done in the morning.
Nematode eggs, either SCN or RKN, are added to distilled water to create a concentration of 1000 vermiform eggs […]. At least four hours after chemical treatment the eggs are applied to the treated pots plus non-treated check plants. A small hole about 1 cm deep is punched into the pot surface. One milliliter of the nematode egg slurry is pipetted into the hole. Immediately afterwards the hole is gently covered. Watering of the test plants is then restricted to only water as needed to prevent wilt for a period of 24 hours. After the 24 hour restricted watering, normal sub-irrigation watering is done for the duration of the test.

root knot nematode = test: Pre-plant incorporated (PPI) greenhouse test of root knot nematode on cucumber plants; type: in vivo; conditions: for pest or weed control at 4000 g/ha: 4 kg/ha, read-out: percent control (galling reduction), 4 kg/ha rate; for pest or weed control at 8000 g/ha: 8 ka/ha, read-out: percent control (galling reduction), 8 ka/ha rate
In short: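 Compound in acetone, diluted in 0.05% X100, was mixed into a field soil/sand mix at doses simulating 8, 4 and 2 kg/ha incorporated 15 cm deep, with 4 pots per treatment. Cucumber was seeded and root knot nematode eggs were applied 7, 14 or 21 days after soil treatment. Harvest followed 14 days after inoculation.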

caspase-3 = test: Caspase-3 activity in H4IIE cells (DEVD-AMC); type: cell-based; conditions: rat hepatoma derived H4IIE cells, concentrations up to 300 μM
Protocol: To evaluate whether the compound classes of this invention are able to induce apoptosis, caspase-3 activity was determined after compound exposure in rat hepatoma derived H4IIE cells using a caspase substrate (DEVD, Asp-Glu-Val-Asp) labeled with a fluorescent molecule, 7-Amino-4-methylcoumarin (AMC). Caspase 3 cleaves the tetrapeptide between D and AMC, thus releasing the fluorogenic […] AMC. Following the test article exposure to cells in 96-well plates, medium was aspirated from plates and PBS added to each well. Plates were stored at −80° C. to lyse cells and store samples until further analysis. On the day of analysis, plates were removed from freezer and thawed. Caspase buffer with fluorescent substrate was added to each well and incubated at room temperature for one hour. AMC release was measured in a spectrofluorometer at an excitation wavelength of 360 nm and an emission wavelength of 460 nm. Values are expressed as relative fluorescent units (RFU).

Meloidogyne incognita = test: Summer field evaluation of pre-plant incorporated compounds on squash; type: in vivo; conditions: 4 kg/ha
In short: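 Compound in acetone/Triton X-100 emulsion mixed into sand/silt loam with galled tomato roots, filling top 15 cm of field plots (pre-plant incorporated), 6 replicates. Plots inoculated with 100k M. incognita eggs/larvae at 5 cm depth. Squash cv. Liberator III transplanted 4 days after treatment.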

[2] = 168 h, seven day pre-plant incorporated
[3] = 336 h, fourteen day pre-plant incorporated, test a
[4] = 504 h, twenty one day pre-plant incorporated
[5] = fourteen day pre-plant incorporated, test a

Row | Compound | pest or weed control at 2000 g/ha ([1]; 2 kg/ha, test a) | percent control (galling reduction) relative to the control blank treatment (root knot nematode (RKN); 0.05 kg/ha, test a) | percent control (galling reduction) relative to the control blank treatment (root knot nematode (RKN); 0.25 kg/ha, test a) | percent control (galling reduction), Acetone 1 mg/kg (root knot nematode (RKN); Acetone formulation (10% acetone in 0.05% Triton X 100), 1 mg/kg) | pest or weed control at 4000 g/ha (root knot nematode; [2]) | pest or weed control at 8000 g/ha (root knot nematode; [2]) | pest or weed control at 4000 g/ha (root knot nematode; [3]) | pest or weed control at 4000 g/ha (root knot nematode; [4]) | pest or weed control at 8000 g/ha (root knot nematode; [4]) | percent control (galling reduction), 2 kg/ha rate (root knot nematode; [5]) | pest or weed control at 8000 g/ha (root knot nematode; [5]) | induction of caspase-3 (caspase-3) | pest or weed control at 100 g/ha ([1]; 0.1 kg/ha, test d) | pest or weed control at 250 g/ha ([1]; 0.25 kg/ha, test d) | percent control (galling reduction) relative to the control blank treatment (root knot nematode (RKN); 0.1 kg/ha, test a) | percent control (galling reduction) relative to the control blank treatment (root knot nematode (RKN); 0.25 kg/ha, test c) | pest or weed control at 4000 g/ha (root knot nematode; 336 h, fourteen day pre-plant incorporated, test b) | pest or weed control at 8000 g/ha (root knot nematode; fourteen day pre-plant incorporated, test b) | control of M. incognita by PPI application (Meloidogyne incognita)
1 | c1ccc(-c2noc(-c3cccs3)n2)cc1 [compound 1822] | 100% | 7^a percent | 60% | 94% | 99% | 99% | 97% | 82% | 95% | 67^a percent | 100% | no induction of caspase-3 | – | – | – | – | – | – | –
2 | Cc1cc(Cl)ccc1-c1noc(-c2ccco2)n1 [compound 5823] | – | – | – | – | – | – | 98% | – | – | 85^a percent | 100% | no induction of caspase-3 | 38% | 69% | 85% | 98% | 94% | 100% | excellent control
